Test results reported in the NIST ThermoML archive (doi:10.1021/je900050z).
Numbers after ± are expanded uncertainties.

Conditions: Liquid

SMILES: CCC(C)O (centres undefined) [butan-2-ol]
- vapor or sublimation pressure (314.47 K): 6.08 ± 0.49 kPa
- vapor or sublimation pressure (315.36 K): 6.43 ± 0.52 kPa
- vapor or sublimation pressure (316.21 K): 6.81 ± 0.55 kPa
- vapor or sublimation pressure (317.61 K): 7.45 ± 0.6 kPa
- vapor or sublimation pressure (318.57 K): 7.92 ± 0.63 kPa
- vapor or sublimation pressure (319.37 K): 8.35 ± 0.67 kPa
- vapor or sublimation pressure (319.58 K): 8.45 ± 0.68 kPa
- vapor or sublimation pressure (320.18 K): 8.77 ± 0.7 kPa
- vapor or sublimation pressure (321.05 K): 9.23 ± 0.74 kPa
- vapor or sublimation pressure (322.03 K): 9.8 ± 0.78 kPa
- vapor or sublimation pressure (322.68 K): 10.19 ± 0.82 kPa
- vapor or sublimation pressure (323.15 K): 10.48 ± 0.84 kPa
- vapor or sublimation pressure (323.41 K): 10.64 ± 0.85 kPa
- vapor or sublimation pressure (324.05 K): 11.04 ± 0.88 kPa
- vapor or sublimation pressure (324.72 K): 11.47 ± 0.92 kPa
- vapor or sublimation pressure (325.27 K): 11.84 ± 0.95 kPa
- vapor or sublimation pressure (325.92 K): 12.31 ± 0.99 kPa
- vapor or sublimation pressure (326.66 K): 12.81 ± 1 kPa
- vapor or sublimation pressure (327.32 K): 13.16 ± 1.1 kPa
- vapor or sublimation pressure (328.28 K): 14.03 ± 1.1 kPa
- vapor or sublimation pressure (329.05 K): 14.61 ± 1.2 kPa
- vapor or sublimation pressure (329.91 K): 15.31 ± 1.2 kPa
- vapor or sublimation pressure (330.49 K): 15.79 ± 1.3 kPa
- vapor or sublimation pressure (331.11 K): 16.31 ± 1.3 kPa
- vapor or sublimation pressure (331.58 K): 16.71 ± 1.3 kPa
- vapor or sublimation pressure (332.17 K): 17.25 ± 1.4 kPa
- vapor or sublimation pressure (332.81 K): 17.87 ± 1.4 kPa
- vapor or sublimation pressure (333.15 K): 18.2 ± 1.5 kPa
- vapor or sublimation pressure (333.28 K): 18.33 ± 1.5 kPa
- vapor or sublimation pressure (333.65 K): 18.68 ± 1.5 kPa
- vapor or sublimation pressure (334.23 K): 19.24 ± 1.5 kPa
- vapor or sublimation pressure (334.69 K): 19.71 ± 1.6 kPa
- vapor or sublimation pressure (335.19 K): 20.2 ± 1.6 kPa
- vapor or sublimation pressure (335.69 K): 20.71 ± 1.7 kPa
- vapor or sublimation pressure (336.28 K): 21.33 ± 1.7 kPa
- vapor or sublimation pressure (336.77 K): 21.85 ± 1.8 kPa
- vapor or sublimation pressure (337.23 K): 22.35 ± 1.8 kPa
- vapor or sublimation pressure (337.72 K): 22.87 ± 1.8 kPa
- vapor or sublimation pressure (338.08 K): 23.28 ± 1.9 kPa
- vapor or sublimation pressure (338.6 K): 23.87 ± 1.9 kPa
- vapor or sublimation pressure (339.07 K): 24.43 ± 1.9 kPa
- vapor or sublimation pressure (339.5 K): 24.95 ± 2 kPa
- vapor or sublimation pressure (339.9 K): 25.43 ± 2 kPa
- vapor or sublimation pressure (340.34 K): 25.97 ± 2.1 kPa
- vapor or sublimation pressure (340.95 K): 26.79 ± 2.1 kPa
- vapor or sublimation pressure (341.4 K): 27.36 ± 2.2 kPa
- vapor or sublimation pressure (341.87 K): 27.99 ± 2.2 kPa
- vapor or sublimation pressure (342.34 K): 28.63 ± 2.3 kPa
- vapor or sublimation pressure (342.89 K): 29.37 ± 2.4 kPa
- vapor or sublimation pressure (343.15 K): 29.76 ± 2.4 kPa
- vapor or sublimation pressure (343.32 K): 29.97 ± 2.4 kPa
- vapor or sublimation pressure (343.81 K): 30.67 ± 2.5 kPa
- vapor or sublimation pressure (344.25 K): 31.31 ± 2.5 kPa
- vapor or sublimation pressure (344.71 K): 31.99 ± 2.6 kPa
- vapor or sublimation pressure (345.14 K): 32.63 ± 2.6 kPa
- vapor or sublimation pressure (345.6 K): 33.33 ± 2.7 kPa
- vapor or sublimation pressure (346.02 K): 33.99 ± 2.7 kPa
- vapor or sublimation pressure (346.45 K): 34.67 ± 2.8 kPa
- vapor or sublimation pressure (346.86 K): 35.32 ± 2.8 kPa
- vapor or sublimation pressure (347.28 K): 36.01 ± 2.9 kPa
- vapor or sublimation pressure (347.65 K): 36.63 ± 2.9 kPa
- vapor or sublimation pressure (348.06 K): 37.31 ± 3 kPa
- vapor or sublimation pressure (348.45 K): 37.99 ± 3 kPa
- vapor or sublimation pressure (348.85 K): 38.64 ± 3.1 kPa
- vapor or sublimation pressure (349.21 K): 39.29 ± 3.1 kPa
- vapor or sublimation pressure (349.58 K): 39.95 ± 3.2 kPa
- vapor or sublimation pressure (350.15 K): 40.97 ± 3.3 kPa
- vapor or sublimation pressure (350.75 K): 42.05 ± 3.4 kPa
- vapor or sublimation pressure (351.25 K): 43.03 ± 3.4 kPa
- vapor or sublimation pressure (351.74 K): 43.96 ± 3.5 kPa
- vapor or sublimation pressure (352.26 K): 44.97 ± 3.6 kPa
- vapor or sublimation pressure (353.08 K): 46.6 ± 3.7 kPa
- vapor or sublimation pressure (353.15 K): 46.75 ± 3.7 kPa
- vapor or sublimation pressure (353.6 K): 47.65 ± 3.8 kPa
- vapor or sublimation pressure (354.06 K): 48.61 ± 3.9 kPa
- vapor or sublimation pressure (354.53 K): 49.61 ± 4 kPa
- vapor or sublimation pressure (355 K): 50.63 ± 4 kPa
- vapor or sublimation pressure (355.45 K): 51.63 ± 4.1 kPa
- vapor or sublimation pressure (355.81 K): 52.39 ± 4.2 kPa
- vapor or sublimation pressure (356.23 K): 53.33 ± 4.3 kPa
- vapor or sublimation pressure (356.8 K): 54.63 ± 4.4 kPa
- vapor or sublimation pressure (357.37 K): 55.96 ± 4.5 kPa
- vapor or sublimation pressure (357.99 K): 57.41 ± 4.6 kPa
- vapor or sublimation pressure (358.5 K): 58.67 ± 4.7 kPa
- vapor or sublimation pressure (359.06 K): 60.03 ± 4.8 kPa
- vapor or sublimation pressure (359.62 K): 61.41 ± 4.9 kPa
- vapor or sublimation pressure (360.13 K): 62.73 ± 5 kPa
- vapor or sublimation pressure (360.61 K): 63.97 ± 5.1 kPa
- vapor or sublimation pressure (361.1 K): 65.29 ± 5.2 kPa
- vapor or sublimation pressure (361.64 K): 66.71 ± 5.3 kPa
- vapor or sublimation pressure (362.1 K): 67.99 ± 5.4 kPa
- vapor or sublimation pressure (362.63 K): 69.43 ± 5.5 kPa
- vapor or sublimation pressure (363.07 K): 70.69 ± 5.7 kPa
- vapor or sublimation pressure (363.57 K): 72.12 ± 5.8 kPa
- vapor or sublimation pressure (364 K): 73.36 ± 5.9 kPa
- vapor or sublimation pressure (364.48 K): 74.72 ± 6 kPa
- vapor or sublimation pressure (364.9 K): 76 ± 6.1 kPa
- vapor or sublimation pressure (365.33 K): 77.31 ± 6.2 kPa
- vapor or sublimation pressure (365.76 K): 78.65 ± 6.3 kPa
- vapor or sublimation pressure (366.18 K): 79.95 ± 6.4 kPa
- vapor or sublimation pressure (366.63 K): 81.35 ± 6.5 kPa
- vapor or sublimation pressure (367.04 K): 82.63 ± 6.6 kPa
- vapor or sublimation pressure (367.47 K): 84.03 ± 6.7 kPa
- vapor or sublimation pressure (367.88 K): 85.39 ± 6.8 kPa
- vapor or sublimation pressure (368.27 K): 86.71 ± 6.9 kPa
- vapor or sublimation pressure (368.68 K): 88.05 ± 7 kPa
- vapor or sublimation pressure (369.08 K): 89.41 ± 7.2 kPa
- vapor or sublimation pressure (369.43 K): 90.67 ± 7.2 kPa
- vapor or sublimation pressure (369.79 K): 91.91 ± 7.3 kPa
- vapor or sublimation pressure (370.19 K): 93.33 ± 7.5 kPa
- vapor or sublimation pressure (370.56 K): 94.44 ± 7.6 kPa
- vapor or sublimation pressure (370.94 K): 96 ± 7.7 kPa
- vapor or sublimation pressure (371.32 K): 97.35 ± 7.8 kPa
- vapor or sublimation pressure (371.65 K): 98.59 ± 7.9 kPa
